{"source": "paper PMC9029323", "about": "“In Silico Identification of Novel Inhibitors Targeting the Homodimeric Interface of Superoxide Dismutase from the Dental Pathogen Streptococcus mutans” (Antioxidants, 2022)", "key": {"[1]": {"tested_on": "fibroblast cell line BJ-5ta", "test": "Colony-forming assay", "assay_type": "cell-based, human", "conditions": "up to 100 µM", "method": "The cell line BJ-5ta, a human skin fibroblast immortalised with the human telomerase reverse transcriptase (Cell Culture Facility of CEINGE, Naples, Italy), was cultured in a 4:1 mixture of DMEM and Medium 199 supplemented with 4 mM L-glutamine, 4.5 g/L glucose, 1.5 g/L sodium bicarbonate, 10% FBS, 100 IU/mL penicillin G and […] streptomycin in a humidified incubator at 37 °C under 5% CO2 atmosphere. Cells were split and seeded every 3 days and used during their exponential phase of growth. Cell treatments were usually carried out after 24 h from plating. To obtain total protein extracts from BJ5-ta, cells were seeded into six-well plates (3 × 10^5 cells/plate) for 24 h at 37 °C and then treated with ALS-31 or 0.5% (v/v) DMSO. After treatment, cells were harvested, washed with PBS and then lysed in ice-cold modified radio immunoprecipitation assay (RIPA) buffer (50 mM Tris•HCl, pH 7.4, 150 mM NaCl, 1% Nonidet P-40, 0.25% sodium deoxycholate, 1 mM Na3VO4 and 1 mM NaF), supplemented with protease inhibitors and incubated for 30 min on ice. […]\nA colony-forming assay was performed as previously described, with some modifications. […] Cells were photographed with a digital camera (Canon PowerShot G9); the number of colonies (≥50 cells per colony) was counted using ImageJ 1.42q software."}, "[2]": {"biological_target": "T1, Cu/ZnSOD from bovine erythrocytes (Bos taurus, UniProt P00442)", "T1 construct": "the Cu/Zn-SOD from bovine erythrocytes (cat. 574594) were purchased from Sigma–Aldrich; purchased Sigma–Aldrich 574594; host or cells: bovine erythrocytes", "T1 sequence (P00442 whole entry)": "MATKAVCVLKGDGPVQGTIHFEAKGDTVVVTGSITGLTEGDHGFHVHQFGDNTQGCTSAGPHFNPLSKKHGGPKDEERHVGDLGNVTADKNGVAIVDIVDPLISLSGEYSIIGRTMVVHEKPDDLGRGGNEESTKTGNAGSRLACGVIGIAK", "test": "SOD activity assay with Cu/Zn-SOD", "assay_type": "biochemical", "description": "(§1) Purified recombinant forms of SmSOD and StSOD were obtained through a heterologous expression system constituted by the Escherichia coli BL21(DE3) strain transformed with appropriate expression vectors, vSmSOD [11] or vStSOD [12]. These pET-22b(+)- or pET-28b(+)-derived plasmids led to the production of recombinant forms of SmSOD or StSOD, respectively fused to a His-tail, useful for their one-step purification by affinity chromatography, as previously described [11, 12]. The improvement of Mn uptake by SmSOD was realised as previously described [11, 12, 13]. The resulting metal (Fe and Mn) content in the cambialistic enzyme was determined by graphite furnace atomic absorption spectrometry with a Shimadzu ACS-6100 auto sampler [46]. Fe-SOD from Escherichia coli (cat. SRP6107) and the Cu/Zn-SOD from bovine erythrocytes (cat. 574594) were purchased from Sigma–Aldrich. A recombinant form of the eukaryal Mn–SOD from rat mitochondria was prepared as previously described [19]. Protein concentration was determined by the Bradford method, using bovine serum albumin as standard [47]. […] One unit of SOD activity was defined as the amount of enzyme that caused 50% inhibition of cytochrome c reduction."}, "[3]": {"tested_on": "Streptococcus mutans ATCC-700610", "test": "Broth micro-dilution antibacterial assay (planktonic growth)", "assay_type": "cell-based", "conditions": "24 h", "method": "The bacterial strain used for antimicrobial assays was Streptococcus mutans ATCC-700610. The strain was stored in 15% (v/v) glycerol stocks at −80 °C. Before each experiment, cells were subcultured from the stocks into Trypticase Soy Agar (TSA, cat. PA-254051.06) with 5% Sheep Blood (Becton Dickinson, Sparks, NV, USA) plates at 37 °C in 5% CO2 atmosphere for 48 h.\nThe antibacterial activity of compounds ALS-31 or ALS-31-9 was assayed in S. mutans cultures by a standard broth micro-dilution method in 96-well polystyrene plates using Brain-Heart Infusion broth (BHI, cat. 255003, Becton Dickinson, Sparks, NV, USA). One hundred microliters of bacterial suspension adjusted to approximately 1.5 × 10^6 CFU/mL were incubated with 100 µL of serial dilutions of the compounds dissolved in final 1.0% (v/v) DMSO as a vehicle. The plates were incubated at 37 °C in 5% CO2 atmosphere for 24 h under shaking (300 rpm). The medium turbidity was measured by a spectrophotometer at 595 nm (Bio-Rad Laboratories Inc., Hercules, CA, USA). Compound-free wells in 1.0% (v/v) DMSO were used as controls (100% planktonic growth), and antibacterial activity was expressed as a percentage of residual growth. Chlorhexidine acetate (CHX, cat. 51094, Sigma-Aldrich, St. Louis, MO, USA) solution (1 mg/mL) was prepared and included as control for the assay of S. mutans’ susceptibility (MIC referred to [51]). Each compound was tested in triplicate; each experiment was performed twice."}, "SmSOD homodimer": {"biological_target": "T2, SmSOD homodimer (Streptococcus mutans serotype c, UniProt P09738)", "T2 construct": "His-tail; made in house; host or cells: Escherichia coli BL21(DE3), vector vSmSOD (pET-22b(+)-derived)", "T2 sequence (P09738 2-203)": "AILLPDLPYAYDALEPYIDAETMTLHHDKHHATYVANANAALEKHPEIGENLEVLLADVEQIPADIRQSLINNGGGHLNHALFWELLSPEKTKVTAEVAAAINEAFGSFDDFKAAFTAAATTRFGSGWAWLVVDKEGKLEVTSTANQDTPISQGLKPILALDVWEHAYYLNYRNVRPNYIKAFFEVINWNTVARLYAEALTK", "test": "Size exclusion chromatography (gel-filtration) of SmSOD", "method": "The oligomerization status of SmSOD was analyzed by gel-filtration on a Superdex^TM 75 10/300 GL column (GE Healthcare) connected to an FPLC^TM system. The column was equilibrated and eluted at 0.5 mL/min at room temperature (20–24 °C) with a 20 mM Tris•HCl buffer, pH 7.8, containing 150 mM KCl and 1% (v/v) DMSO. However, where indicated, the equilibration and elution buffer also contained 200 µM inhibitor. The protein molecular mass standards used for calibration of the size exclusion chromatography were bovine serum albumin (68 kDa), egg albumin (46 kDa), carbonic anhydrase (30 kDa) and cytochrome c (12.4 kDa).\nFigure 4 Effect of ALS-31 on gel-filtration of SmSOD. A protein sample of SmSOD, 63 µM in 20 mM Tris•HCl buffer, pH 7.8, supplemented with 150 mM KCl and 1% (v/v) DMSO, was untreated or incubated at room temperature for 20 min with 200 µM ALS-31. The protein sample was then loaded on a Superdex 75 10/300 column and the elution profile was followed by a continuous absorbance monitoring at 280 nm. Untreated SmSOD (black line); SmSOD incubated with 200 µM ALS-31 without (green line) or after the addition of 200 µM ALS-31 in the elution buffer (red line). The elution volumes of bovine serum albumin (9.56 mL), egg albumin (10.44 mL), carbonic anhydrase (11.72 mL) and cytochrome c (13.51 mL), used as standard protein markers, are indicated by inverted triangles. Their position was unaffected by the addition of ALS-31 in equilibration and elution buffer."}, "SmSOD": {"biological_target": "T3, SmSOD (Streptococcus mutans serotype c, UniProt P09738)", "T3 construct": "His-tail; made in house; host or cells: Escherichia coli BL21(DE3), vector vSmSOD (pET-22b(+)-derived)", "T3 sequence (P09738 2-203)": "as above", "test": "SOD activity assay (inhibition of cytochrome c reduction, xanthine/xanthine oxidase method) with SmSOD", "assay_type": "biochemical", "description": "as §1"}, "cambialistic StSOD": {"biological_target": "cambialistic StSOD (Streptococcus thermophilus, UniProt Q5M4Z1)", "sequence (Q5M4Z1 entry or part of it)": "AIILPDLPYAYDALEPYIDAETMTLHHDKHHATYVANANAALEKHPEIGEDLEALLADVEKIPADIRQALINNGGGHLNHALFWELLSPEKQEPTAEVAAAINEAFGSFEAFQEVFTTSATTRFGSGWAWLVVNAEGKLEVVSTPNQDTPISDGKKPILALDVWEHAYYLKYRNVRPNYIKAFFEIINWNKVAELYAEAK", "test": "SOD activity assay with StSOD", "assay_type": "biochemical", "description": "as §1"}}, "note": "Entries after “also recorded” stand apart in the source; their conditions may differ. Where two headings read alike, the source gives them in different places.", "data": [{"molecule": "CSCCC(NC(=O)COc1ccc2c3c(c(=O)oc2c1)CCCC3)C(=O)NCCC(=O)O", "note": "(stereo not drawn) [ALS-31]", "values": [{"measurement": "toxicity for growth / viability of fibroblast cell line BJ-5ta (colony formation)", "setting": "[1]", "result": "not affected; also recorded: not toxic"}, {"measurement": "IC50", "setting": "[2]", "result": "146 ± 25", "unit": "µM"}, {"measurement": "percentage of planktonic growth of S. mutans", "setting": "[3]; 104 µM", "result": "74.3 ± 4.5", "unit": "%"}, {"measurement": "percentage of planktonic growth of S. mutans", "setting": "[3]; 209 µM", "result": "50.7 ± 4.2", "unit": "%"}, {"measurement": "concentration up to which no antimicrobial activity is displayed in S. mutans suspensions", "setting": "[3]", "result": "≤ 50", "unit": "µM"}, {"measurement": "calculated molecular mass of SmSOD major peak", "setting": "SmSOD homodimer; 200 µM compound in equilibration and elution buffer, untreated SmSOD 51.8 kDa", "result": 23.2, "unit": "kDa"}, {"measurement": "quaternary structure of SmSOD in gel-filtration", "setting": "SmSOD homodimer; 200 µM compound in protein sample and elution buffer", "result": "dissociation of the SmSOD homodimer in two monomers"}, {"measurement": "elution of SmSOD compared with untreated sample", "setting": "SmSOD homodimer; SmSOD incubated with 200 µM compound before loading, no compound in elution buffer", "result": "almost identical elution"}, {"measurement": "remaining activity at 20 µM", "setting": "SmSOD; 20 µM compound, activity of SmSOD in the absence of compound equal to 100, read-out: Residual SOD Activity (%) in the Presence of [Compound]", "result": 92, "unit": "%"}, {"measurement": "remaining activity at 50 µM", "setting": "SmSOD; 50 µM compound, activity of SmSOD in the absence of compound equal to 100, Table 1, read-out: Residual SOD Activity (%) in the Presence of [Compound]", "result": 71, "unit": "%"}, {"measurement": "IC50", "setting": "SmSOD; Mn-basal SmSOD, read-out: IC50 (concentration leading to 50% inhibition of SmSOD activity)", "result": 159, "unit": "µM"}, {"measurement": "IC50", "setting": "SmSOD; Mn-enriched SmSOD, basal Mn content 2.7-fold improved after metal exchange, read-out: IC50 in the Mn-enriched enzyme", "result": "262 ± 11", "unit": "µM"}, {"measurement": "remaining activity at 100 µM", "setting": "SmSOD; read-out: Residual SOD Activity (%) in the Presence of [Compound]", "result": 56, "unit": "%"}, {"measurement": "effect on SmSOD activity (in words)", "setting": "SmSOD; screening concentrations or inhibition profile up to 300 µM", "result": "dose-dependent reduction; also recorded: evident dose-dependent inhibition"}, {"measurement": "IC50", "setting": "cambialistic StSOD", "result": "218 ± 50", "unit": "µM"}]}]}
